Paper PMC9848300, “Discovery of novel enasidenib analogues targeting inhibition of mutant isocitrate dehydrogenase 2 as antileukaemic agents” (Journal of Enzyme Inhibition and Medicinal Chemistry, 2023)
Where “and” joins values, the source holds several entries; their conditions need not be identical. Equal entries are not always repeated.

Tests used:
CCRF-CEM = assay: NCI 60 antitumor screening (single dose / five doses); type: cell-based; details: Homo sapiens; for inhibition at 10 µM: CCRF-CEM (leukaemia), single dose 10 μM, read-out: Growth inhibition percentage (GI %)
RPMI-8226 = assay: as above; type: cell-based; details: Homo sapiens; for inhibition at 10 µM: RPMI-8226 (leukaemia), single dose 10 μM, read-out: Growth inhibition percentage (GI %); for GI50: RPMI-8226, five doses (0.01–100 μM), read-out: GI50
SR = assay: as above; type: cell-based; details: Homo sapiens; for inhibition at 10 µM: SR (leukaemia), single dose 10 μM, read-out: Growth inhibition percentage (GI %)
EKVX = assay: as above; type: cell-based; details: Homo sapiens; for inhibition at 10 µM: EKVX (non-small cell lung cancer), single dose 10 μM, read-out: Growth inhibition percentage (GI %); for GI50: EKVX, five doses (0.01–100 μM), read-out: GI50
HOP-92 = assay: as above; type: cell-based; details: Homo sapiens; for inhibition at 10 µM: HOP-92 (non-small cell lung cancer), single dose 10 μM, read-out: Growth inhibition percentage (GI %); for GI50: HOP-92, five doses (0.01–100 μM), read-out: GI50
HCC-2998 = assay: NCI 60 antitumor screening (single dose); type: cell-based; details: Homo sapiens; HCC-2998 (colon cancer), single dose 10 μM; read-out: Growth inhibition percentage (GI %)
Summary of the method: (§1)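 NCI-60 one-dose screen. Dose: 10 μM. Lines: 60 human tumour lines, nine tissue types. Output: GI% = 100 − G%.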

SNB-19 = assay: NCI 60 antitumor screening (single dose); type: cell-based; details: Homo sapiens; SNB-19 (CNS cancer), single dose 10 μM; read-out: Growth inhibition percentage (GI %)
Summary of the method: as §1

TK-10 = assay: NCI 60 antitumor screening (single dose); type: cell-based; details: Homo sapiens; TK-10 (renal cancer), single dose 10 μM; read-out: Growth inhibition percentage (GI %)
Summary of the method: as §1

COLO 205 = assay: NCI 60 antitumor screening (single dose / five doses); type: cell-based; details: Homo sapiens; for inhibition at 10 µM: COLO 205 (colon cancer), single dose 10 μM, read-out: Growth inhibition percentage (GI %); for GI50: COLO 205, five doses (0.01–100 μM), read-out: GI50
HCT-116 = assay: as above; type: cell-based; details: Homo sapiens; for inhibition at 10 µM: HCT-116 (colon cancer), single dose 10 μM, read-out: Growth inhibition percentage (GI %); for GI50: HCT-116, five doses (0.01–100 μM), read-out: GI50
HCT-15 = assay: as above; type: cell-based; details: Homo sapiens; for inhibition at 10 µM: HCT-15 (colon cancer), single dose 10 μM, read-out: Growth inhibition percentage (GI %); for GI50: HCT-15, five doses (0.01–100 μM), read-out: GI50
SW-620 = assay: as above; type: cell-based, human; details: Homo sapiens; for GI50: SW-620, SW-620, five doses (0.01–100 μM), read-out: GI50; for inhibition at 10 µM: SW-620 (colon cancer), single dose 10 μM, read-out: Growth inhibition percentage (GI %)
SF-295 = assay: as above; type: cell-based; details: Homo sapiens; for inhibition at 10 µM: SF-295 (CNS cancer), single dose 10 μM, read-out: Growth inhibition percentage (GI %); for GI50: SF-295, five doses (0.01–100 μM), read-out: GI50
SF-539 = assay: as above; type: cell-based; details: Homo sapiens; for inhibition at 10 µM: SF-539 (CNS cancer), single dose 10 μM, read-out: Growth inhibition percentage (GI %); for GI50: SF-539, five doses (0.01–100 μM), read-out: GI50
LOX IMVI = assay: as above; type: cell-based; details: Homo sapiens; for inhibition at 10 µM: LOX IMVI (melanoma), single dose 10 μM, read-out: Growth inhibition percentage (GI %); for GI50: LOX IMVI, five doses (0.01–100 μM), read-out: GI50
MDA-MB-435 = assay: as above; type: cell-based; details: Homo sapiens; for inhibition at 10 µM: MDA-MB-435 (melanoma), single dose 10 μM, read-out: Growth inhibition percentage (GI %); for GI50: MDA-MB-435, five doses (0.01–100 μM), read-out: GI50
SK-MEL-2 = assay: as above; type: cell-based; details: Homo sapiens; for inhibition at 10 µM: SK-MEL-2 (melanoma), single dose 10 μM, read-out: Growth inhibition percentage (GI %); for GI50: SK-MEL-2, five doses (0.01–100 μM)
UACC-62 = assay: as above; type: cell-based; details: Homo sapiens; for inhibition at 10 µM: UACC-62 (melanoma), single dose 10 μM, read-out: Growth inhibition percentage (GI %); for GI50: UACC-62, five doses (0.01–100 μM), read-out: GI50
IGROV1 = assay: as above; type: cell-based; details: Homo sapiens, IGROV-1; for inhibition at 10 µM: IGROV1 (ovarian cancer), single dose 10 μM, read-out: Growth inhibition percentage (GI %); for GI50: IGROV1, five doses (0.01–100 μM), read-out: GI50
NCI/ADR-RES = assay: as above; type: cell-based; details: Homo sapiens; for inhibition at 10 µM: NCI/ADR-RES (ovarian cancer), single dose 10 μM, read-out: Growth inhibition percentage (GI %); for GI50: NCI/ADR-RES, five doses (0.01–100 μM), read-out: GI50
786-0 = assay: as above; type: cell-based; details: Homo sapiens; for inhibition at 10 µM: 786-0, 786-0 (renal cancer), single dose 10 μM, read-out: Growth inhibition percentage (GI %); for GI50: 786-0, five doses (0.01–100 μM), read-out: GI50
A498 = assay: as above; type: cell-based; details: Homo sapiens; for inhibition at 10 µM: A498 (renal cancer), single dose 10 μM, read-out: Growth inhibition percentage (GI %); for GI50: A498, five doses (0.01–100 μM), read-out: GI50
RXF 393 = assay: as above; type: cell-based; details: Homo sapiens; for inhibition at 10 µM: RXF 393 (renal cancer), single dose 10 μM, read-out: Growth inhibition percentage (GI %); for GI50: RXF 393, five doses (0.01–100 μM), read-out: GI50
UO-31 = assay: as above; type: cell-based; details: Homo sapiens; for inhibition at 10 µM: UO-31 (renal cancer), single dose 10 μM, read-out: Growth inhibition percentage (GI %); for GI50: UO-31, five doses (0.01–100 μM), read-out: GI50
MDA-MB-231/ATCC = assay: as above; type: cell-based; details: Homo sapiens; for GI50: MDA-MB-231/ ATCC, five doses (0.01–100 μM), read-out: GI50; for inhibition at 10 µM: MDA-MB-231/ATCC (breast cancer), single dose 10 μM, read-out: Growth inhibition percentage (GI %)
BT-549 = assay: as above; type: cell-based; details: Homo sapiens; for inhibition at 10 µM: BT-549 (breast cancer), single dose 10 μM, read-out: Growth inhibition percentage (GI %); for GI50: BT-549, five doses (0.01–100 μM), read-out: GI50
MDA-MB-468 = assay: as above; type: cell-based; details: Homo sapiens; for inhibition at 10 µM: MDA-MB-468 (breast cancer), single dose 10 μM, read-out: Growth inhibition percentage (GI %); for GI50: MDA-MB-468, five doses (0.01–100 μM), read-out: GI50
[1] = system: 60 human subpanel cancer cell lines; assay: NCI 60 antitumor screening, mean over the panel (single dose); type: cell-based; details: mean over 60 cancer cell lines, single dose 10 μM
Summary of the method: as §1

CN(C)c1ccc(/C=N/Nc2nc(N/N=C/c3ccc(N(C)C)cc3)nc(N3CCCCC3)n2)cc1 [compound 7g, 4-[(1e)-(2-{4-[(E)-2-{[4-(dimethylamino)phenyl]methylidene}chydrazin-1-yl]-6-(piperidin-1-yl)-1,3,5-triazin-2-yl}hydrazin-1-ylidene)methyl]-N,N-dimethylaniline]
inhibition at 10 µM (CCRF-CEM): 74.2% | GI50 (CCRF-CEM; CCRF-CEM, five doses (0.01–100 μM), read-out: GI50): 1210 nM | inhibition at 10 µM (RPMI-8226): 67.4% | GI50 (RPMI-8226): 1920 nM | inhibition at 10 µM (SR): 114% | GI50 (SR; SR, five doses (0.01–100 μM), read-out: GI50): 360 nM | inhibition at 10 µM (EKVX): 2.99% | GI50 (EKVX): 3130 nM | inhibition at 10 µM (HOP-92): 16% | GI50 (HOP-92): 1470 nM | inhibition at 10 µM (HCC-2998): -3.1% | inhibition at 10 µM (SNB-19): 13.9% | inhibition at 10 µM (TK-10): -18.4% | inhibition at 10 µM (COLO 205): 16.5% | GI50 (COLO 205): 1890 nM | inhibition at 10 µM (HCT-116): 85.1% | GI50 (HCT-116): 1640 nM | inhibition at 10 µM (HCT-15): 99.9% | GI50 (HCT-15): 1870 nM | GI50 (SW-620): 1890 nM | inhibition at 10 µM (SW-620): 35.8% | inhibition at 10 µM (SF-295): -6.74% | GI50 (SF-295): 1960 nM | inhibition at 10 µM (SF-539): 112% | GI50 (SF-539): 1.99 µM | inhibition at 10 µM (LOX IMVI): 173% | GI50 (LOX IMVI): 1610 nM | inhibition at 10 µM (MDA-MB-435): 39.6% | GI50 (MDA-MB-435): 1940 nM | inhibition at 10 µM (SK-MEL-2): -10.8% | GI50 (SK-MEL-2): 1990 nM | inhibition at 10 µM (UACC-62): -0.61% | GI50 (UACC-62): 1840 nM | inhibition at 10 µM (IGROV1): 6.23% | GI50 (IGROV1): 2.96 µM | inhibition at 10 µM (NCI/ADR-RES): 41.7% | GI50 (NCI/ADR-RES): 3190 nM | inhibition at 10 µM (786-0): 11.8% | GI50 (786-0): 1690 nM | inhibition at 10 µM (A498): -15.1% | GI50 (A498): 1580 nM | inhibition at 10 µM (RXF 393): 6.71% | GI50 (RXF 393): 2120 nM | inhibition at 10 µM (UO-31): 19.7% | GI50 (UO-31): 1720 nM | GI50 (MDA-MB-231/ATCC): 1.8 µM | inhibition at 10 µM (MDA-MB-231/ATCC): 31.4% | inhibition at 10 µM (BT-549): -10.6% | GI50 (BT-549): 1.55 µM | inhibition at 10 µM (MDA-MB-468): 63.7% | GI50 (MDA-MB-468): 1640 nM | Mean GI % [1]: 35.10%

Fc1cccc(Cl)c1/C=N/Nc1nc(N/N=C/c2c(F)cccc2Cl)nc(N2CCCCC2)n1 [compound 7l, 2,4-Bis[(E)-2-[(2-Chloro-6-fluorophenyl)methylidene]hydrazin-1-yl]-6-(piperidin-1-yl)-1,3,5-triazine]
inhibition at 10 µM (CCRF-CEM): 77.7% | inhibition at 10 µM (RPMI-8226): 96.7% | GI50 (RPMI-8226): 2260 nM | inhibition at 10 µM (SR): 83.9% | inhibition at 10 µM (EKVX): 86.2% | GI50 (EKVX): 1540 nM | inhibition at 10 µM (HOP-92): 101% | GI50 (HOP-92): 1470 nM | inhibition at 10 µM (HCC-2998): 75.7% | inhibition at 10 µM (SNB-19): 74.2% | inhibition at 10 µM (TK-10): 72.8% | inhibition at 10 µM (COLO 205): 117% | GI50 (COLO 205): 1780 nM | inhibition at 10 µM (HCT-116): 80.5% | GI50 (HCT-116): 2830 nM | inhibition at 10 µM (HCT-15): 96.1% | GI50 (HCT-15): 2820 nM | GI50 (SW-620): 3510 nM | inhibition at 10 µM (SW-620): 82.8% | inhibition at 10 µM (SF-295): 97.4% | GI50 (SF-295): 1010 nM | inhibition at 10 µM (SF-539): 43.8% | GI50 (SF-539): 7.65 µM | inhibition at 10 µM (LOX IMVI): 80.4% | GI50 (LOX IMVI): 3770 nM | inhibition at 10 µM (MDA-MB-435): 96.2% | GI50 (MDA-MB-435): 2860 nM | inhibition at 10 µM (SK-MEL-2): 126% | GI50 (SK-MEL-2): 1690 nM | inhibition at 10 µM (UACC-62): 81.7% | GI50 (UACC-62): 2350 nM | inhibition at 10 µM (IGROV1): 82.3% | GI50 (IGROV1): 3.16 µM | inhibition at 10 µM (NCI/ADR-RES): 84.8% | GI50 (NCI/ADR-RES): 2760 nM | inhibition at 10 µM (786-0): 71.7% | GI50 (786-0): 3440 nM | inhibition at 10 µM (A498): 47.2% | GI50 (A498): 2400 nM | inhibition at 10 µM (RXF 393): 96.6% | GI50 (RXF 393): 2650 nM | inhibition at 10 µM (UO-31): 91% | GI50 (UO-31): 2010 nM | GI50 (MDA-MB-231/ATCC): 7.65 µM | inhibition at 10 µM (MDA-MB-231/ATCC): 57.9% | inhibition at 10 µM (BT-549): 31.6% | GI50 (BT-549): 4.45 µM | inhibition at 10 µM (MDA-MB-468): 114% | GI50 (MDA-MB-468): 1860 nM | Mean GI % [1]: 81% and 81.15%
